The values below come from patent US8158828B2, “Nuclear receptor binding agents” (priority 2005, dated 2012).

One may read the inhibition as how much of the control response was suppressed.

In one data set the target is T1, ER-α (Rattus norvegicus, UniProt P06211).
T1 sequence (P06211 1-600): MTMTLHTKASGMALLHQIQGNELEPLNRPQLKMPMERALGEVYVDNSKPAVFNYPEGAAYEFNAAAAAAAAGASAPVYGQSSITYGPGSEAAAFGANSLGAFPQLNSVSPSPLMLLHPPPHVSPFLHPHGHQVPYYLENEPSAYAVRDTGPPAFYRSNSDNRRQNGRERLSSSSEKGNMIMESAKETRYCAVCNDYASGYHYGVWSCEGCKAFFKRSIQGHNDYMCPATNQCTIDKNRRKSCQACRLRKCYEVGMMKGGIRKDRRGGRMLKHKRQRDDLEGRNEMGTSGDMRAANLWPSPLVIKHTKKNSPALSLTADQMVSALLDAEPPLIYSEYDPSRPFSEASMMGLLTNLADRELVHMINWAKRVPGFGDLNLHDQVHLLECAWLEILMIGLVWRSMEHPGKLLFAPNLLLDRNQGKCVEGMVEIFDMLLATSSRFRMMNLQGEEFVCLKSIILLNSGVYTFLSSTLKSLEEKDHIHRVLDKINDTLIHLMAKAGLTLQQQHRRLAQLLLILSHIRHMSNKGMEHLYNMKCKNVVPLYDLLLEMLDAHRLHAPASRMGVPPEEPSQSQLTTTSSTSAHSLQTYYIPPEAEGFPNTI
Description: ER-α transactivation, ERE-LUC in COS or 293 cells. The data set is classed as cell-based. Also noted: % estardiol activity, ER-α: dose or concentration left out as unconfirmed. The protocol:
FIG. 1: Effects of the indicated compounds on ER-α transactivation. COS or 293 cells plated in DME without phenol red+10% charcoal stripped fetal bovine serum (csFBS) at 90,000 cells per well of 24 well plates were transfected with 0.25 μg ERE-LUC, 0.02 μg CMV-LUC (Renilla) and 25 ng of ER-α by lipofectamine. Twenty four hours after transfection, the cells were treated as indicated in the figure, harvested 48 hrs after transfection and were assayed for firefly and renilla luciferase.
FIG. 5: Effect of the indicated compounds on ER-α transactivation. COS or 293 cells plated in DME without phenol red+10% csFBS at 90,000 cells per well of a 24 well plate were transfected with 0.25 μg ERE-LUC, 0.02 μg CMV-LUC (Renilla) and […] of ER-α by lipofectamine. Twenty four hours after transfection, the cells were treated as indicated in the figure, harvested 48 hrs after transfection and were assayed for firefly and renilla luciferase.
FIG. 9: Effect of the indicated compounds on ER-α transactivation. COS or 293 cells plated in DME without phenol red+10% csFBS per well of a 24 well plate were transfected with 0.25 μg ERE-LUC, 0.02 μg CMV-LUC (Renilla) and 25 ng of ER-α by lipofectamine. Twenty four hours after transfection, the cells were treated as indicated in the figure, harvested 48 hrs after transfection and were assayed for firefly and renilla luciferase.
Also 25 ng of ER-α (FIGS. 1, 5, and 9), 50 ng of ER-β (FIGS. 2, 6 and 10) or 12.5 ng of AR (FIG. 3) were introduced by lipofectamine. All the receptors were cloned from rat tissue into the PCR3.1 vector backbone. […] Cells were harvested 48 hrs after transfection, and assayed for firefly and Renilla luciferase activity.
Also 25 ng of ER-α), 50 ng of ER-β or 12.5 ng of AR were introduced by lipofectamine. All the receptors were cloned from rat tissue into the PCR3.1 vector backbone. […] Cells were harvested 48 hrs after transfection, and assayed for firefly and Renilla luciferase activity.

For another data set, the target named is T2, ER-β (Rattus norvegicus, UniProt Q62986).
T2 construct: expressed in transfected cells; host or cells: COS or 293 cells
In words: ER-β transactivation, ERE-LUC in COS or 293 cells. The data set is classed as cell-based. Conditions: COS or 293 cells. The protocol:
FIG. 2: Effect of the indicated compounds on ER-β transactivation. COS or 293 cells plated in DME without phenol red+10% csFBS at 90,000 cells per well of a 24 well plate were transfected with 0.25 μg ERE-LUC, 0.02 μg CMV-LUC (Renilla) and 50 ng of ER-β by lipofectamine. Twenty four hours after transfection, the cells were treated as indicated in the figure, harvested 48 hrs after transfection and were assayed for firefly and renilla luciferase.
FIG. 6: Effect of the indicated compounds on ER-β transactivation. COS or 293 cells plated in DME without phenol red+10% csFBS at 90,000 cells per well of a 24 well plate were transfected with 0.25 μg ERE-LUC, 0.02 μg CMV-LUC (Renilla) and 50 ng of ER-β by lipofectamine. Twenty four hours after transfection, the cells were treated as indicated in the figure, harvested 48 hrs after transfection and assayed for firefly and renilla luciferase.
FIG. 10: Effect of the indicated compounds on ER-β transactivation. COS or 293 cells plated in DME+10% csFBS at 90,000 cells per well of a 24 well plate were transfected with 0.25 μg ERE-LUC, 0.02 μg CMV-LUC (Renilla) and 50 ng of ER-β by lipofectamine. Twenty four hours after transfection, the cells were treated as indicated in the figure, harvested 48 hrs after transfection and were assayed for firefly and renilla luciferase.
(§1) All the receptors were cloned from rat tissue into the PCR3.1 vector backbone. […] Cells were harvested 48 hrs after transfection, and assayed for firefly and Renilla luciferase activity.
as §1

For data set [1], the system named is TRAP positive multinucleated osteoclasts. In words: TRAP positive multinucleated osteoclasts from bone marrow cells. The data set is classed as cell-based, rat. Conditions: RANKL and GMCSF, 12 days. The protocol: FIG. 7: Effect of the indicated compounds on TRAP positive multinucleated osteoclasts. Bone marrow cells from rat femur was cultured in Alpha MEM+10% csFBS without phenol red in the presence or absence of 30 ng/ml RANKL and 10 ng/ml GMCSF. The cells were treated for 12 days and were stained for tartarate resistant acid phosphatase activity (TRAP) and multinucleated osteoclasts were counted.
Bone marrow cells isolated from rat femur were cultured in Alpha MEM without phenol red+10% sterile FBS without phenol red in the presence or absence of […] RANKL and 10 ng/ml GMCSF. The cells were treated for 12 days were stained for tartarate resistant acid phosphatase activity (TRAP) positive multinucleated osteoclasts and were counted.

The subject of another data set is uterus. Description: In vivo estrogenic activity, uterine weight. Further details: species or system rat. As to conditions: female rats; for estrogenic activity in terms of uterine weight: compound alone. The protocol:
Rats that were administered the vehicle alone served as controls.

Data set [2] is described as follows: Metabolic stability in human liver microsomes. As to conditions: 1 μM substrate, 0.5 mg/mL microsomes. The protocol: Each substrate or reference control was dissolved at a concentration of 10 mM in DMSO, from which a 5 μM spiking solution was prepared by dilution in water. Substrates (1 μM) were incubated in the presence of human liver microsomes (Xenotech LLC, Kansas City Mo.) at 0.5 mg/mL fortified with an NADPH regenerating system at 37° C. and pH 7.4. The NADPH regenerating system consisted of glucose-6-phosphate dehydrogenase (1 units/mL) in 0.05M K2HPO4. Duplicate incubations were performed in 96-well polypropylene cluster tubes in a final volume of 250 μL per reaction. At 0, 2, 4, 6, 10, 30, and 60 minutes a stop solution (300 μL acetonitrile) was added to aliquots of the reaction mixture. Precipitated protein was removed by centrifugation (3000 rpm for 15 minutes) and the supernatants were transferred to clean 96-well plates for analysis.
The samples were injected onto a Phenomenex Luna hexylphenyl 50×2 mm i.d. 5 uM, column fitted with a guard column. An isocratic mobile phase consisting of 50% acetonitrile and 0.1% formic acid in water was used at a flow rate of 0.3 mL/min. The protonated molecular ion (M+H)^+ of the analyte was monitored by MDS/Sciex API 4000QTrap triple quadrupole mass spectrometer using electrospray positive mode ionization with a temperature of 500° C. and a spray voltage of 4000V. Total analysis time was 1.5 min per sample.
Metabolic stability was defined as the amount of substrate metabolized by the incubation with hepatic microsomes and expressed as a percentage of the initial amount of substrate (% remaining) based on peak area. Initial substrate concentration for each analyte was 1 μM. The initial peak area of each substrate was determined at time zero and metabolic stability was assessed based on the change in analyte peak area from time 0 min to a single fixed timepoint for each sample (2-60 min, representative timepoints are shown in Table 2 below).
On the technique in general: Microsomes from liver hold many membrane-bound enzymes, among them those of drug oxidation.

The test system of data set [3] is pS2 (gene encoding the trefoil peptides) in MCF-7 cells. Description: pS2 gene expression in MCF-7 cells (realtime RT-PCR). The data set is classed as cell-based. Conditions: 16 hrs. The protocol:
MCF-7 cells were plated at 500,000 cells per well of a 6 well plate. RNA was isolated and the message levels of pS2 (gene encoding the trefoil peptides) measured and normalized to 18S ribosomal RNA by realtime polymerase chain reaction (rtPCR).
FIG. 11: Agonistic activity of the indicated compounds in MCF-7 cells. MCF-7 cells were plated at 500,000 cells per well of a 6 well plate. RNA was isolated and the message levels of pS2 gene measured and normalized to 18S ribosomal RNA by realtime rtPCR.
MCF-7 cells were plated at 500,000 cells per well of a 6 well plate. The cells were serum starved for 3 days and then were treated as above for 16 hrs. RNA was isolated and gene expression levels assessed by realtime RT-PCR, following normalization to 18S ribosomal RNA.

For a further data set, the system named is PC-3 cells. Description: Androgen independent prostate cancer cell growth. As to conditions: for PC-3 growth inhibition, qualitative grading: in vitro, data not shown; for inhibition at 10 µM: Homo sapiens, PC-3, 72 hrs. The data set is classed as cell-based. The protocol:
PC-3 cells were plated in RPMI+10% csFBS at 6000 cells per well of a 96 well plate. Medium was changed to RPMI+1% csFBS without phenol red and then treated for 72 hrs with increasing concentrations of SERMs.
The prostate cancer cell line PC-3 was plated in RPMI+10% csFBS at 6000 cells per well of a 96 well plate. Medium was changed to RPMI+1% csFBS without phenol red and cells were treated for 72 hrs with increasing concentrations of SERMs.
PC-3 growth inhibition was determined qualitatively, in vitro, and represented as a grading system based on the ability of the SERMs to inhibit growth. The number −4 is for compounds that induced 100% growth inhibition at 1 uM, −3 for compounds that inhibit growth by about 75-90%, −2 for about 50-70% and −1 for inhibition less than 50% growth.

Entries after “also recorded” stand apart in the source; their conditions may differ.

T2 sequence (Q62986 whole entry): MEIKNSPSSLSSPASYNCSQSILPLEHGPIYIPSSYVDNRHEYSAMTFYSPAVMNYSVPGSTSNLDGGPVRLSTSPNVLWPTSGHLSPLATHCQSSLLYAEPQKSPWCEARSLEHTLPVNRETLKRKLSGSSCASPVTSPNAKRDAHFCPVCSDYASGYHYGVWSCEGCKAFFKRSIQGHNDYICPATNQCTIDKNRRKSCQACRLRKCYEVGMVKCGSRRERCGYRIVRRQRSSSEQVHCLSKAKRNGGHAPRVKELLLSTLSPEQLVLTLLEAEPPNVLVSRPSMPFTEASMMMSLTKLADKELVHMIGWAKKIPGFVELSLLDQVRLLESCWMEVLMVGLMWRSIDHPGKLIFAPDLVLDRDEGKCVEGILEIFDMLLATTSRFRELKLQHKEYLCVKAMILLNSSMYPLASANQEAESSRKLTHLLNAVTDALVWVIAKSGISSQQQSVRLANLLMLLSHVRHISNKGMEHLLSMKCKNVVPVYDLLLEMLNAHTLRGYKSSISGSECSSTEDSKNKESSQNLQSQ

In the case of `O=C(c1ccc(O)cc1)N(c1ccc(O)cc1)c1ccc(O)cc1` [Compound 3a, 4-hydroxy-N,N-bis-(4-hydroxyphenyl)-benzamide], the “% estardiol activity, ER-α” value on ER-α is listed as 49.5%. Also, on ER-β, the “ER-β LUC expression, compound alone” value was “most potent in stimulating ER-β”. Moreover, the “osteoclast differentiation / osteoclast activity” value in data set [1] is “suppressed osteoclasts”. For the same compound, the “estrogenic activity in terms of uterine weight” value (from here on “estrogenic activity in terms”) with uterus is “exhibited estrogenic activity, in vivo”. The “% Remaining 0 min” value in data set [2] (0 min) is reported as 100%. The “% Remaining 10 min” value in data set [2] (10 min) turned out to be 140%. Moreover, the “% Remaining 30 min” value in data set [2] (30 min) is given as 118%. The “% Remaining 60 min” value in data set [2] (60 min) was 103%.

`O=C(c1cccc(O)c1)N(c1ccccc1)c1ccccc1` [Compound 3f, 3-hydroxy-N,N-diphenyl-benzamide]: the pS2 expression entry in data set [3] is “increased pS2 expression levels”. For the same compound, the “estrogenic activity in terms” value in the data set with uterus is on record as “exhibited estrogenic activity, in vivo”.

Consider `O=C(c1ccccc1)N(c1ccccc1)c1ccc(OCCN2CCCCC2)cc1` [Compound 4b, N-(phenyl)-N-[4-(2-piperidin-1-ylethoxy)-phenyl]-benzamide], for which the “PC-3 growth inhibition, qualitative grading” value (from here on “PC-3 growth inhibition”) in the data set on PC-3 cells is recorded as −1 (−1 for inhibition less than 50% growth).

As to `Cl.O=C(c1ccc(OCCN2CCCCC2)cc1)N(c1ccccc1)c1ccc(O)cc1` [Compound 4e, N-(4-hydroxyphenyl)-N-phenyl-[4-(2-piperidin-1-ylethoxy)]-benzamide hydrochloride], the “PC-3 growth inhibition” value in the data set with PC-3 cells is reported as −1 (−1 for inhibition less than 50% growth). For the same compound, the “estrogenic activity in terms” value in the data set with uterus is reported as “exhibited no estrogenic, or anti-estrogenic activity in uterus”.

With `O=C(c1ccc(OCCN2CCCCC2)cc1)N(c1ccc(O)cc1)c1ccc(F)cc1` [Compound 4g, N-(4-fluorophenyl)-N-[4-hydroxyphenyl]-[4-(2-piperidin-1-ylethoxy)]-benzamide], the “estrogenic activity in terms” value in the data set on uterus is on record as “exhibited estrogenic activity, in terms of increased uterine weight; also recorded: exhibited estrogenic activity, in vivo”. Moreover, the “uterine weight increase, with ICI-182,780” value in the data set with uterus (with ICI-182,780) was “ICI-182,780 reversed 4a and 4g effects on uterine weight increase”. In addition, the “uterine weight, coadministered with estrogen” value with uterus (with estrogen) is recorded as “an increase in uterine weight was observed”.

Regarding `Cl.Cl.O=C(c1ccc(OCCN2CCCCC2)cc1)N(c1ccc(F)cc1)c1ccc(OCCN2CCCCC2)cc1` [Compound 4r, N-(4-fluorophenyl)-N-[4-(2-piperidin-1-ylethoxy)-phenyl]-[4-(2-piperidin-1-yl-ethoxy)]-benzamide dihydrochloride], in the data set on PC-3 cells, the inhibition at 10 µM came to 100% and the “PC-3 growth inhibition” value was −4 (The number −4 is for compounds that induced 100% growth inhibition at 1 uM).

Consider `Cl.Cl.O=C(c1ccc(OCCN2CCCCC2)cc1)N(c1ccccc1)c1ccc(OCCN2CCCCC2)cc1` [Compound 4u, N-[4-(2-piperidin-1-ylethoxy)-phenyl]-N-phenyl-[4-(2-piperidin-1-ylethoxy)]-benzamide dihydrochloride], for which the “% estardiol activity, ER-α” value at ER-α came out at 12.8%. In the data set on PC-3 cells, 10 µM produced 100% inhibition and the “PC-3 growth inhibition” value was −3 (−3 for compounds that inhibit growth by about 75-90%).
